Biological target: prohibitin 2 (PHB2) (Homo sapiens, UniProt Q99623)
Test: diazirine photoaffinity labelling (UV […] nm) with pull-down/western blot; DARTS
Format: cell-based
Design: endogenous PHB2 in ES-2 cells

Sequence of prohibitin 2 (PHB2) (Q99623 2-299): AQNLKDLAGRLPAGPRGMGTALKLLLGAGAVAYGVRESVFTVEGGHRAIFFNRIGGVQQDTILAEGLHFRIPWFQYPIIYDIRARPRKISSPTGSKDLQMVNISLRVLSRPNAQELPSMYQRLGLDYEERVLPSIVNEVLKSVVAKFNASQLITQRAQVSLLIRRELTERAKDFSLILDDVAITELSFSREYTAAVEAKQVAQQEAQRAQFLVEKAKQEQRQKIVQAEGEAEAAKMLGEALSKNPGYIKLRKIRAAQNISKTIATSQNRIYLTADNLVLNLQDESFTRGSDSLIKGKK

SMILES: C#CCCC1(CC(=O)N2CCC(n3cc(-c4cn5cc(-c6ccccc6)nc5c(C5=CCOCC5)n4)cn3)CC2)N=N1 [YL-939-1]
- diazirine photoaffinity labelling (UV 365 nm) with pull-down/western blot; DARTS: revealed that only PHB2 protein could be pulled down by the probe (Fig. 4D)

Source: publication PMC9719519, “Non-classical ferroptosis inhibition by a small molecule targeting PHB2” (Nature Communications, 2022)
